In patent US20240246945A1, “NOVEL COMPOUND FOR CROP PROTECTANT” (LG CHEM, LTD., priority 2010, published 2024):

Tested on: Myzus persicae (Sulzer)
Assay: Insecticidal Activity Test 2 against Myzus persicae (Sulzer), foliar spray on potted peppers, approximately 25 ppm
Assay type: in vivo
Settings: in Capsicum, 120 h, approximately 25 ppm drug solution in water, counted on day 5 after spraying, read-out: mortality rate rating
From the text: Insecticidal Activity Test 2 Against Myzus persicae (Sulzer)
Peppers were planted in plastic pots with a diameter of 8 cm and a height of 8 cm, Myzus persicae (Sulzer) was reproduced therein, and then the number of Myzus persicae (Sulzer) in each pot was investigated. Some of the compounds prepared in the examples were selected, the compound was dispersed in water to be diluted to approximately 25 ppm, thereby preparing a drug solution.
The drug solution was sprayed onto the foliage of the peppers planted in the pots and air-dried, and the pots were stored in a green house.
On day 5 after the drug spraying, the number of Myzus persicae (Sulzer) parasitic on each pepper was counted, a mortality rate was calculated from the following formula, and the rating of each compound was investigated.
[formula] • A rating: 90% to 100% mortality • B rating: 80% or more and less than 90% mortality • C rating: less than 80% mortality

| SMILES | mortality at 25 µg/mL |
| --- | --- |
| CCN(C(=O)c1cnc(-c2noc(N(C(C)=O)C(C)C)n2)n1C)c1cccnc1 [Ia-1-1-38, N-ethyl-2-(5-(N-isopropylacetamido)-1,2,4-oxadiazol-3-yl)-1-methyl-N-(pyridin-3-yl)-1H-imidazole-5-carboxamide] | 90 to 100% |
| CCN(C(=O)c1cnc(C2=NC(C)(C)ON2C)n1C)c1cccnc1 [Ia-1-5-1, N-ethyl-1-methyl-N-(pyridin-3-yl)-2-(2,5,5-trimethyl-2,5-dihydro-1,2,4-oxadiazol-3-yl)-1H-imidazole-5-carboxamide] | 90 to 100% |
| CCN(C(=O)c1cnc(-c2noc(-c3cocn3)n2)n1C)c1cccnc1 [Ia-1-1-22, N-ethyl-1-methyl-2-(5-(oxazol-4-yl)-1,2,4-oxadiazol-3-yl)-N-(pyridin-3-yl)-1H-imidazole-5-carboxamide] | 90 to 100% |
| CCN(C(=O)c1cnc(C2=NOC3(CCOCC3)N2)n1C)c1cccnc1 [Ia-1-4-10, N-ethyl-1-methyl-N-(pyridin-3-yl)-2-(1,8-dioxa-2,4-diazaspiro[4.5]dec-2-en-3-yl)-1H-imidazole-5-carboxamide] | 90 to 100% |
| CCN(C(=O)c1cnc(C2=NOC(C)(C)N2C(=O)C2CC2)n1C)c1cccnc1 [Ia-1-4-3, 2-(4-(cyclopropanecarbonyl)-5,5-dimethyl-4,5-dihydro-1,2,4-oxadiazol-3-yl)-N-ethyl-1-methyl-N-(pyridin-3-yl)-1H-imidazole-5-carboxamide] | 90 to 100% |
| CCN(C(=O)c1cnc(-c2noc(-c3ccncc3)n2)n1C)c1cccnc1 [Ia-1-1-31, N-ethyl-1-methyl-N-(pyridin-3-yl)-2-(5-(pyridin-4-yl)-1,2,4-oxadiazol-3-yl)-1H-imidazole-5-carboxamide] | 90 to 100% |
| CCN(C(=O)c1cnc(C2=NC3(CCN(C(=O)OC(C)(C)C)CC3)ON2C)n1C)c1cccnc1 [Ia-1-5-3, tert-butyl 3-(5-(ethyl(pyridin-3-yl)carbamoyl)-1-methyl-1H-imidazole-2-yl)-2-methyl-1-oxa-2,4,8-triazaspiro[4.5]dec-3-en-8-carboxylate] | 90 to 100% |
| CCN(C(=O)c1cnc(C2=NOC(c3ccccc3F)N2)n1C)c1cccnc1 (stereo not shown) [Ia-1-4-33, N-ethyl-2-(5-(2-fluorophenyl)-4,5-dihydro-1,2,4-oxadiazol-3-yl)-1-methyl-N-(pyridin-3-yl)-1H-imidazole-5-carboxamide] | 90 to 100% |
| CCN(C(=O)c1cnc(-c2noc(N3CCOCC3)n2)n1C)c1cccnc1 [Ia-1-1-37, N-ethyl-1-methyl-2-(5-morpholino-1,2,4-oxadiazol-3-yl)-N-(pyridin-3-yl)-1H-imidazole-5-carboxamide] | 90 to 100% |
| CCN(C(=O)c1cnc(-c2noc(C(F)F)n2)n1C)c1cccnc1 [Ia-1-1-2, 2-(5-(difluoromethyl)-1,2,4-oxadiazol-3-yl)-N-ethyl-1-methyl-N-(pyridin-3-yl)-1H-imidazole-5-carboxamide] | 90 to 100% |
| CCN(C(=O)c1cnc(-c2noc(-c3ccccc3F)n2)n1C)c1cccnc1 [Ia-1-1-24, N-ethyl-1-methyl-2-(5-(2-fluorophenyl)-1,2,4-oxadiazol-3-yl)-N-(pyridin-3-yl)-1H-imidazole-5-carboxamide] | 90 to 100% |
| CCN(C(=O)c1cnc(-c2noc(NC(C)C)n2)n1C)c1cccnc1 [Ia-1-1-33, N-ethyl-2-(5-(isopropylamino)-1,2,4-oxadiazol-3-yl)-1-methyl-N-(pyridin-3-yl)-1H-imidazole-5-carboxamide] | 90 to 100% |
| CCN(C(=O)c1cnc(C2=NOC3(CCC(C(F)(F)F)CC3)N2C)n1C)c1cccnc1 (stereo not shown) [Ia-1-4-25, N-ethyl-1-methyl-2-(4-methyl-8-(trifluoromethyl)-1-oxa-2,4-diazaspiro[4.5]dec-2-en-3-yl)-N-(pyridin-3-yl)-1H-imidazole-5-carboxamide] | 90 to 100% |
| CCN(C(=O)c1cnc(-c2noc(C(C)C)n2)n1C)c1cccnc1 [Ia-1-1-6, N-ethyl-2-(5-isopropyl-1,2,4-oxadiazol-3-yl)-1-methyl-N-(pyridin-3-yl)-1H-imidazole-5-carboxamide] | 90 to 100% |
| CCN(C(=O)c1cnc(-c2noc(CC3CC3)n2)n1C)c1cccnc1 [Ia-1-1-16, 2-(5-(cyclopropylmethyl)-1,2,4-oxadiazol-3-yl)-N-ethyl-1-methyl-N-(pyridin-3-yl)-1H-imidazole-5-carboxamide] | 90 to 100% |
| CCN(C(=O)c1cnc(-c2noc(-c3cnco3)n2)n1C)c1cccnc1 [Ia-1-1-23, N-ethyl-1-methyl-2-(5-(oxazol-5-yl)-1,2,4-oxadiazol-3-yl)-N-(pyridin-3-yl)-1H-imidazole-5-carboxamide] | 90 to 100% |
| CCNc1nc(-c2ncc(C(=O)N(CC)c3cccnc3)n2C)no1 [Ia-1-1-35, N-ethyl-2-(5-(ethylamino)-1,2,4-oxadiazol-3-yl)-1-methyl-N-(pyridin-3-yl)-1H-imidazole-5-carboxamide] | 90 to 100% |
| CCCc1nc(-c2ncc(C(=O)N(CC)c3cccnc3)n2C)no1 [Ia-1-1-7, N-ethyl-1-methyl-2-(5-propyl-1,2,4-oxadiazol-3-yl)-N-(pyridin-3-yl)-1H-imidazole-5-carboxamide] | 90 to 100% |
| CCN(C(=O)c1cnc(-c2noc(C(C)(C)C)n2)n1C)c1cccnc1 [Ia-1-1-5, 2-(5-(tert-butyl)-1,2,4-oxadiazol-3-yl)-N-ethyl-1-methyl-N-(pyridin-3-yl)-1H-imidazole-5-carboxamide] | 90 to 100% |
| CCN(C(=O)c1cnc(C2=NC(c3cccnc3F)ON2C)n1C)c1cccnc1 (stereo not shown) [Ia-1-5-9, N-ethyl-2-(5-(2-fluoropyridin-3-yl)-2-methyl-2,5-dihydro-1,2,4-oxadiazol-3-yl)-1-methyl-N-(pyridin-3-yl)-1H-imidazole-5-carboxamide] | 90 to 100% |
| CCN(C(=O)c1cnc(-c2noc(-c3ccccc3)n2)n1C)c1cccnc1 [Ia-1-1-21, N-ethyl-1-methyl-2-(5-phenyl-1,2,4-oxadiazol-3-yl)-N-(pyridin-3-yl)-1H-imidazole-5-carboxamide] | 90 to 100% |
| CCN(C(=O)c1cnc(-c2noc(-c3cccnc3)n2)n1C)c1cccnc1 [Ia-1-1-30, N-ethyl-1-methyl-N-(pyridin-3-yl)-2-(5-(pyridin-3-yl)-1,2,4-oxadiazol-3-yl)-1H-imidazole-5-carboxamide] | 90 to 100% |
| CCN(C(=O)c1cnc(C2=NOC(CC)(CC)N2)n1C)c1cccnc1 [Ia-1-4-4, 2-(5,5-diethyl-4,5-dihydro-1,2,4-oxadiazol-3-yl)-N-ethyl-1-methyl-N-(pyridin-3-yl)-1H-imidazole-5-carboxamide] | 90 to 100% |
| CCN(C(=O)c1cnc(C2=NOC(c3cccnc3F)N2)n1C)c1cccnc1 (stereo not shown) [Ia-1-4-34, N-ethyl-2-(5-(2-fluoropyridin-3-yl)-4,5-dihydro-1,2,4-oxadiazol-3-yl)-1-methyl-N-(pyridin-3-yl)-1H-imidazole-5-carboxamide] | 90 to 100% |
| CCN(C(=O)c1cnc(C2=NOC3(CCOCC3)N2C(=O)C2CC2)n1C)c1cccnc1 [Ia-1-4-12, 2-(4-(cyclopropanecarbonyl)-1,8-dioxa-2,4-diazaspiro[4.5]dec-2-en-3-yl)-N-ethyl-1-methyl-N-(pyridin-3-yl)-1H-imidazole-5-carboxamide] | 90 to 100% |
